Key:
[1] = test system: Spodoptera littoralis larvae; assay: Insecticidal activity, sprayed diet (Test 1 (a)), toxicity vs parathion; assay type: in vivo, Egyptian cotton leafworm (Spodoptera littoralis); settings: second instar larvae; mortality 7 days after spraying; 50% mortality basis; standard parathion = 100
Experimental: (§1) The insecticidal and ovicidal activities of the compounds of the invention were assessed employing the pests, Egyptian cotton leafworm (Spodoptera littoralis, S.l.), mosquito (Aedes aegypti, A.a.) and eggs of Spodoptera littoralis, S.l.ov.
(§2) The test methods used for each species are described below. In each case the tests were conducted under normal insectary conditions (28° C.[…]; fluctuating light and humidity).
(§3) In each instance, the toxicity of the compound of the invention was compared to that of a standard pesticide (parathion), its relative toxicity then being expressed in terms of the relationship between the amount of compound of the invention and the amount of the standard pesticide required to produce the same percentage (50%) of mortality in the test insect. By assigning the standard pesticide an arbitrary rating of 100, the toxicities of the compounds of the invention were expressed in terms of the toxicity indices, which compares the toxicity of the compounds of the invention with that of the standard pesticide.
(a) Spodoptera littoralis--A solution or suspension of the test compound was made up over a range of concentrations in 10% acetone/water containing 0.025% Triton X100 (as surfactant). These solutions were sprayed using a logarithmic spraying machine onto petri dishes containing a nutritious diet on which the Spodoptera littoralis larvae had been reared. When the spray deposit had dried each dish was infested with 10 second instar larvae. Mortality assessments were made 7 days after spraying.

[2] = test system: eggs of Spodoptera littoralis; assay: Ovicidal activity, sprayed eggs (Test 1 (c)), toxicity vs parathion; assay type: in vivo, Egyptian cotton leafworm (Spodoptera littoralis); settings: eggs less than 24 hours old; approximately five days; 50% mortality basis; standard parathion = 100
Experimental: as §1, §2
as §3, with “pesticide. That is to say, a test compound having a Toxicity Index of 50 would be half as active, while one having a Toxicity Index of 200 would be twice as active as the standard pesticide.” for “pesticide.”
(c) Spodoptera littoralis (ovicide)--Solutions as described in (a) above were prepared. Eggs less than 24 hours old were obtained as follows. Adult Spodoptera littoralis were held in large plastic cylinders containing blotting paper on which the moths laid their batches of eggs. Egg batches containing approximately 60-70 eggs were cut from the blotting paper with a 1 cm surround. These were placed, eggs uppermost, on filter paper in the deeper half of 5 cm disposable petri dishes and each batch of eggs was then sprayed with a different test solution or the control solution. The dishes were covered until the control eggs had hatched, approximately five days. The percentage ovicidal mortality was then calculated.

Aedes aegypti larvae = assay: Insecticidal activity, larvae in treated water (Test 1 (b)), toxicity vs parathion; assay type: in vivo, mosquito (Aedes aegypti); design: key: Toxicity Index: parathion = 100; 200 = twice as active, 50 = half; settings: early fourth instar larvae; final mortality when all larvae emerged as adults or died; 50% mortality basis; standard parathion = 100
Experimental: as §1, §2
as §3, with “pesticide. That is to say, a test compound having a Toxicity Index of 50 would be half as active, while one having a Toxicity Index of 200 would be twice as active as the standard pesticide.” for “pesticide.”
(b) Aedes aegypti--Several solutions of the test compound of varying concentration were prepared in acetone. 100 microliter quantities were added to 100 milliliters of tap water, the acetone being allowed to evaporate off. Ten early fourth instar larvae were placed in the test solution; after 48 hours the (surviving) larvae were fed with animal feed pellets, and the final percentage mortality assessed when all the larvae had either pupated and emerged as adults or died.

| SMILES | Toxicity Index S.l. [1] | Toxicity Index S.l.ov. [2] | Toxicity Index A.a. (Aedes aegypti larvae) |
| --- | --- | --- | --- |
| O=C(NC(=O)N(Sc1ccc([N+](=O)[O-])cc1[N+](=O)[O-])c1ccc(OC(F)(F)F)cc1)c1ccccc1Cl [Example 2, 2-Chloro-N-[[[4-(trifluoromethoxy)phenyl]-N-[(2,4-dinitrophenyl)thio]amino]carbonyl]benzamide] | 150 | 3300 | 82 |
| Cc1ccccc1SN(C(=O)NC(=O)c1ccccc1Cl)c1ccc(OC(F)(F)F)cc1 [Example 4, 2-Chloro-N-[[[4-(trifluoromethoxy)phenyl]-N-[(2-methylphenyl)thio]amino]carbonyl]benzamide] | 110 | 2200 | 77 |
| O=C(NC(=O)N(Sc1ccccc1[N+](=O)[O-])c1ccc(Cl)cc1)c1c(F)cccc1F [Example 5, N-[[[4-Chlorophenyl]-N-[(2-nitrophenyl)thio]amino]carbonyl]-2,6-difluorobenzamide] | 90 | 0-4 | 220 |
| O=C(NC(=O)N(SC(Cl)(Cl)Cl)c1ccc(C(F)(F)F)cc1)c1c(F)cccc1F [Example 6, 2,6-Difluoro-N-[[[(trichloromethyl)thio]-N-[4-(trifluoromethyl)phenyl]amino]carbonyl]benzamide] | 260 | 400 | 34 |
| O=C(NC(=O)N(SC(Cl)(Cl)Cl)c1ccc(Oc2ccc(C(F)(F)F)cc2Cl)cc1)c1ccccc1Cl [Example 7, 2-Chloro-N-[[[4-[2-chloro-4-(trifluoromethyl)phenoxy]phenyl]-N-[(trichloromethyl)thio]amino]carbonyl]benzamide] | 1800 | 0 | 55 |
| O=C(NC(=O)N(Sc1ccccc1)c1ccc(Cl)cc1)c1c(F)cccc1F [Example 8] | 16 | 480 | 22 |
| Cc1ccccc1SN(C(=O)NC(=O)c1c(F)cccc1F)c1ccc(Cl)cc1 [Example 9] | 43 | 1400 | 31 |
| Cc1cccc(SN(C(=O)NC(=O)c2c(F)cccc2F)c2ccc(Cl)cc2)c1 [Example 10] | 20 | 1400 | 24 |
| Cc1ccc(SN(C(=O)NC(=O)c2c(F)cccc2F)c2ccc(Cl)cc2)cc1 [Example 11] | 23 | 680 | 25 |
| O=C(NC(=O)N(Sc1ccc(Cl)cc1)c1ccc(Cl)cc1)c1c(F)cccc1F [Example 12] | 17 |  | 14 |
| O=C(NC(=O)N(Sc1ccc([N+](=O)[O-])cc1[N+](=O)[O-])c1ccc(Cl)cc1)c1c(F)cccc1F [Example 13] | 35 | 1800 | 100 |
| O=C(NC(=O)N(SC(Cl)(Cl)Cl)c1ccc(Cl)cc1)c1c(F)cccc1F [Example 14] | 10 | 560 | 6 |
| O=C(NC(=O)N(Sc1ccccc1)c1ccc(C(F)(F)F)cc1)c1c(F)cccc1F [Example 15] | 170 | 1800 | 50 |
| Cc1ccccc1SN(C(=O)NC(=O)c1c(F)cccc1F)c1ccc(C(F)(F)F)cc1 [Example 16] | 550 | 2700 |  |
| Cc1cccc(SN(C(=O)NC(=O)c2c(F)cccc2F)c2ccc(C(F)(F)F)cc2)c1 [Example 17] | 260 | 2800 | 160 |
| Cc1ccc(SN(C(=O)NC(=O)c2c(F)cccc2F)c2ccc(C(F)(F)F)cc2)cc1 [Example 18] | 300 | 2300 | 170 |

| SMILES | Toxicity Index S.l. [1] | Toxicity Index S.l.ov. [2] | Toxicity Index A.a. (Aedes aegypti larvae) |
| --- | --- | --- | --- |
| O=C(NC(=O)N(Sc1ccc(Br)cc1)c1ccc(C(F)(F)F)cc1)c1c(F)cccc1F [Example 19] | 240 | 1500 | 10 |
| O=C(NC(=O)N(Sc1ccccc1[N+](=O)[O-])c1ccc(C(F)(F)F)cc1)c1c(F)cccc1F [Example 20] | 160 | 1800 | 180 |
| O=C(NC(=O)N(Sc1ccc([N+](=O)[O-])cc1)c1ccc(C(F)(F)F)cc1)c1c(F)cccc1F [Example 21] | 96 |  | 13 |
| O=C(NC(=O)N(Sc1ccc([N+](=O)[O-])cc1[N+](=O)[O-])c1ccc(C(F)(F)F)cc1)c1c(F)cccc1F [Example 22] | 220 | 2300 | 51 |
| Cc1ccc(SN(C(=O)NC(=O)c2ccccc2Cl)c2ccc(OC(F)(F)F)cc2)cc1 [Example 23] | 140 | 1500 | 145 |
| O=C(NC(=O)N(Sc1ccc([N+](=O)[O-])cc1)c1ccc(OC(F)(F)F)cc1)c1ccccc1Cl [Example 24] | 54 | 11 | 31 |
| O=C(NC(=O)N(SC(Cl)(Cl)Cl)c1ccc(OC(F)(F)F)cc1)c1ccccc1Cl [Example 25] | 140 | 1300 | 28 |
| CC(C)(C)c1ccc(SN(C(=O)NC(=O)c2c(F)cccc2F)c2ccc(C(F)(F)F)cc2)cc1 [Example 26] | 580 | 8 | 82 |
| O=C(NC(=O)N(Sc1ccc(Cl)cc1)c1ccc(C(F)(F)F)cc1)c1c(F)cccc1F [Example 27] | 220 | 2200 | 21 |
| O=C(NC(=O)N(Sc1ccc([N+](=O)[O-])cc1)c1ccc(Cl)cc1)c1c(F)cccc1F [Example 28] | 54 | 720 | 6 |
| O=C(NC(=O)N(Sc1ccccc1)c1ccc(Oc2ccc(C(F)(F)F)cc2Cl)cc1)c1ccccc1Cl [Example 29] | 930 | 0 | 330 |
| O=C(NC(=O)N(Sc1ccc(Cl)cc1)c1ccc(Oc2ccc(C(F)(F)F)cc2Cl)cc1)c1ccccc1Cl [Example 30] | 670 | 0 | 220 |
| Cc1ccccc1SN(C(=O)NC(=O)c1ccccc1Cl)c1ccc(Oc2ccc(C(F)(F)F)cc2Cl)cc1 [Example 31] | 960 | 0 | 240 |
| CC(C)c1ccccc1SN(C(=O)NC(=O)c1ccccc1Cl)c1ccc(OC(F)(F)F)cc1 [Example 32] | 88 | 2000 | 28 |
| O=C(NC(=O)N(Sc1ccc(Cl)cc1)c1ccc(OC(F)(F)F)cc1)c1ccccc1Cl [Example 33] | 57 | 1300 | 44 |
| Cc1ccc(SN(C(=O)NC(=O)c2ccccc2Cl)c2ccc(Oc3ccc(C(F)(F)F)cc3Cl)cc2)cc1 [Example 34] | 1200 | 0 | 130 |

Source: US4497822A, “Insecticidal N-benzoyl-N'-phenyl-N'-(R-thio)ureas” (Shell Oil Company, priority 1982, dated 1985)
